Laboratory results taken from US20120214847A1, “2-[1-PHENYL-5-HYDROXY-4a-SUBSTITUTED-HEXAHYDROCYCLOPENTA[F]INDAZOL-5-YL]ETHYL PHENYL DERIVATIVES AS GLUCOCORTICOID RECEPTOR LIGANDS” (Merck Sharp & Dohme Corp., priority 2009, published 2012).

Target: T1, glucocorticoid receptor (Homo sapiens, UniProt P04150)
T1 construct: endogenous in cells; host or cells: HeLa (ATCC) cell lysate supernatant
T1 sequence (P04150 1-777): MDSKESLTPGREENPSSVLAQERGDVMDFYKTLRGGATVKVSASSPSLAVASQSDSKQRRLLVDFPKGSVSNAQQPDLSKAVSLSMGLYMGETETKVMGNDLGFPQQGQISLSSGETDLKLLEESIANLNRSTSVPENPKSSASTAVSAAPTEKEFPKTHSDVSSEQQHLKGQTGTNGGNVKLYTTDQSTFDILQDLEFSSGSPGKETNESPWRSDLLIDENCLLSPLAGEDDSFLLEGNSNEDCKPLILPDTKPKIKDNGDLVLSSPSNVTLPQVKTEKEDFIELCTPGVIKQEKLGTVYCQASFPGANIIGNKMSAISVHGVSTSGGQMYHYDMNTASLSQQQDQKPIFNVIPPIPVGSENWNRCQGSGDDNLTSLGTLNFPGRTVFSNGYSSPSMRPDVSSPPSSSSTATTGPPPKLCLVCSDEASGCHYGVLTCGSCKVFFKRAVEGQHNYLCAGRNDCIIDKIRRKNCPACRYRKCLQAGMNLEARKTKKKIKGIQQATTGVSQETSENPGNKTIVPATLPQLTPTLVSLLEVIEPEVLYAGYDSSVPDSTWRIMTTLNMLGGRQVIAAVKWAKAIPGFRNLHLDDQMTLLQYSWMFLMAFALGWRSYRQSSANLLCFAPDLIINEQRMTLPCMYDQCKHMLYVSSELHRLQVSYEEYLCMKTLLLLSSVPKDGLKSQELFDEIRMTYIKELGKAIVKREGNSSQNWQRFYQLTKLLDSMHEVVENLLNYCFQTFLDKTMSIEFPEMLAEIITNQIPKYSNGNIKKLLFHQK
Experiment: Ligand binding assay (GRBind), 3H-dexamethasone displacement in HeLa cell lysate
Details: 3H-DEX tracer
Method: Binding Buffer: TEGM (10 mM Tris-HCl, 1 mM EDTA, 10% glycerol, 1 mM betamecaptoethanol, 10 mM Sodium Molybdate, pH 7.2)
50% HAP Slurry: Calbiochem Hydroxylapatite, Fast Flow, in 10 mM Tris, pH 8.0 and 1 mM EDTA.
Wash Buffer: 40 mM Tris, pH7.5, 100 mM KCl, 1 mM EDTA and 1 mM EGTA. 95% EtOH Dexmethasone-methyl-3H, (DEXA*); (Amersham cat#TRK645) Dexamethasone(DEX) (Sigma, cat#01756):
Hydroxylapatite Fast Flow; Calbiochem Cat#391947
25 Molybdate=Molybdic Acid (Sigma, M1651)
5 Cells (Hall R. E., et al., European Journal of Cancer, 30A: 484-490 (1994)) HeLa (ATCC) cultured in RPMI 1640 (Gibed 11835-055) containing 20 mM Hepes, 4 mM L-glu, 10 ug/ml of human insulin (Sigma, 1-0259), 10% FBS and 20 uglml of Gentamicin (Gibco#15710072) are rinsed twice in PBS. Phenol red-free Trypsin-EDTA is diluted in the same PBS 1:10. The cell layers are rinsed with IX Trypsin, extra Trypsin is poured out, and the cell layers are incubated at 37° C. for 2 min. The flask is tapped and checked for signs of cell detachment. Once the cells begin to slide off the flask, the complete media is added. The cells are counted at this point, then diluted to the appropriate concentration and split into flasks or dishes for further culturing (Usually 1:3 to 1:6 dilution).
Preparation of HeLa Cell Lysate
When the cells are 70 to 85% confluent, they are detached as described above, and collected by centrifuging at 1000 g for 10 min at 4° C. The cell pellet is washed twice with TEGM (10 mM Tris-HCl, 1 mM EDTA, 10% glycerol, 1 mM beta-mercaptoethanol, 10 mM Sodium Molybdate, pH 7.2). After the final wash, the cells are resuspended in TEGM at a concentration of 10^7 cells/mL. The cell suspension is snap frozen in liquid nitrogen or ethanol/dry ice bath and transferred to −80° C. freezer on dry ice. Before setting up the binding assay, the frozen samples are left on ice-water to just thaw. Then the samples are centrifuged at 12,500 g to 20,000 g for 30 min at 4° C. The supernatant is used to set-up assay right away. If using 50 μL of supernatant, the test compound can be prepared in 50 μL of the TEGM buffer.
Procedure for Multiple Compound Screening
1×TEGM buffer is prepared, and the isotope-containing assay mixture is prepared in the following order: EtOH (2% final concentration in reaction), 3H-DEX (Amersham Biosciences) and 1×TEGM. [e.g. For 100 samples, 200 JlL (100×2) of EtOH+4.25 JlL of 1:10 ^3H-Dex stock+2300 μL (100×23) 1×TEGM]. The compound is serially diluted, e.g., if starting final conc. is 1 μM, and the compound is in 25 μL of solution, for duplicate samples, 75 μL of 4×1 μM solution is made and 3 μL of 100). 1M is added to 72 μL of buffer, and 1:5 serial dilution.
25 μL of ^3H-DEX (6 nM) trace and 25 μL, compound solution are first mixed together, followed by addition of 50 μL receptor solution. The reaction is gently mixed, spun briefly at about 200 rpm and incubated at 4° C. overnight. 100 μL of 50% HAP slurry is prepared and added to the incubated reaction which is then vortexed and incubated on ice for 5 to 10 min. The reaction mixture is vortexed twice more to resuspend HAP while incubating reaction. The samples in 96-well format are then washed in wash buffer using the FilterMate™ Universal Harvester plate washer (Packard). The washing process transfers HAP pellet containing ligand-bound expressed receptor to Unifilter-96 GFIB filter plate (Packard). The HAP pellet on the filter plate is incubated with […] of MICROSCINT (Packard) scintillant for 30 min before being counted on the TopCount microscintillation counter (Packard). IC50s are calculated using DEX as a reference.

Row | SMILES | Ki
1 | O=C(NC1(CO)CC1)c1ccccc1CC[C@]1(O)CCC2=Cc3c(cnn3-c3ccc(F)cc3)C[C@@]21C1CC1 [Example 46, 2-{2-[(4aR,5R)-4a-Cyclopropyl-1-(4-fluorophenyl)-5-hydroxy-1,4,4a,5,6,7-hexahydrocyclopenta[f]indazol-5-yl]ethyl}-N-[1-(hydroxymethyl)cyclopropyl]benzamide] | 1.99 nM
2 | CC[C@]12Cc3cnn(-c4ccc(F)cc4)c3C=C1CC[C@@]2(O)CCc1cccc(OC)c1C(N)=O [Example 37, 2-{2-[(4aS,5R)-4a-Ethyl-1-(4-fluorophenyl)-5-hydroxy-1,4,4a,5,6,7-hexahydrocyclopenta[f]indazol-5-yl]ethyl}-6-methoxybenzamide] | 2.02 nM
3 | CC[C@]12Cc3cnn(-c4cccc(F)c4)c3C=C1CC[C@@]2(O)CCc1cccc(F)c1C(N)=O [Example 12, 2-{2-[(4aS,5R)-4a-Ethyl-1-(3-fluorophenyl)-5-hydroxy-1,4,4a,5,6,7-hexahydrocyclopenta[f]indazol-5-yl]ethyl}-6-fluorobenzamide] | 1.85 nM
4 | NC(=O)c1c(C2CC2)ccnc1CC[C@]1(O)CCC2=Cc3c(cnn3-c3ccc(F)cc3)C[C@@]21C1CC1 [Example 49, 4-Cyclopropyl-2-{2-[(4aR,5R)-4a-cyclopropyl-1-(4-fluorophenyl)-5-hydroxy-1,4,4a,5,6,7-hexahydrocyclopenta[f]indazol-5-yl]ethyl}pyridine-3-carboxamide] | 2.7 nM
5 | NC(=O)CNC(=O)c1ccccc1CC[C@]1(O)CCC2=Cc3c(cnn3-c3ccc(F)cc3)C[C@@]21C1CC1 [Example 47, N-(2-Amino-2-oxoethyl)-2-{2-[(4aR,5R)-4a-cyclopropyl-1-(4-fluorophenyl)-5-hydroxy-1,4,4a,5,6,7-hexahydrocyclopenta[f]indazol-5-yl]ethyl}benzamide] | 1.43 nM
6 | COc1cccc(CC[C@]2(O)CCC3=Cc4c(cnn4-c4ccc(F)cc4)C[C@@]32C2CC2)c1C(N)=O [Example 38, 2-{2-[(4aR,5R)-4a-Cyclopropyl-1-(4-fluorophenyl)-5-hydroxy-1,4,4a,5,6,7-hexahydrocyclopenta[f]indazol-5-yl]ethyl}-6-methoxybenzamide] | 1.25 nM
7 | CC[C@]12Cc3cnn(-c4ccccc4)c3C=C1CC[C@@]2(O)CCc1ccc(F)cc1C(N)=O [Example 6] | 3.17 nM
8 | O=C(NCCO)c1ccccc1CC[C@]1(O)CCC2=Cc3c(cnn3-c3ccc(F)cc3)C[C@@]21C1CC1 [Example 50, 2-{2-[(4aR,5R)-4a-Cyclopropyl-1-(4-fluorophenyl)-5-hydroxy-1,4,4a,5,6,7-hexahydrocyclopenta[f]indazol-5-yl]ethyl}-N-(2-hydroxyethyl)benzamide] | 2.09 nM
9 | NS(=O)(=O)c1ccccc1CC[C@]1(O)CCC2=Cc3c(cnn3-c3cccnc3)C[C@@]21C1CC1 [Example 24, 2-{2-[(4aR,5R)-4a-Cyclopropyl-5-hydroxy-1-(pyridin-3-yl)-1,4,4a,5,6,7-hexahydrocyclopenta[f]indazol-5-yl]ethyl}benzenesulfonamide] | 2.19 nM
10 | CC[C@]12Cc3cnn(-c4ccc(F)cc4)c3C=C1CC[C@@]2(O)CCc1nccc(OC)c1CC(N)=O [Example 64, 2-(2-{2-[(4aS,5R)-4a-Ethyl-1-(4-fluorophenyl)-5-hydroxy-1,4,4a,5,6,7-hexahydrocyclopenta[f]indazol-5-yl]ethyl}-4-methoxypyridin-3-yl)acetamide] | 11.5 nM
11 | Cc1ccnc(CC[C@]2(O)CCC3=Cc4c(cnn4-c4ccc(F)cc4)C[C@@]32C2CC2)c1 [Example 36, (4aR,5R)-4a-Cyclopropyl-1-(4-fluorophenyl)-5-[2-(4-methylpyridin-2-yl)ethyl]-1,4,4a,5,6,7-hexahydrocyclopenta[f]indazol-5-ol] | 1.63 nM
12 | NC(=O)c1ccccc1CC[C@]1(O)CCC2=Cc3c(cnn3-c3ccc(F)cc3)C[C@@]21C1CC1 [Example 23, 2-{2-[(4aR,5R)-4a-Cyclopropyl-1-(4-fluorophenyl)-5-hydroxy-1,4,4a,5,6,7-hexahydrocyclopenta[f]indazol-5-yl]ethyl}benzamide] | 1.8 nM
13 | N#Cc1ccccc1CC[C@]1(O)CCC2=Cc3c(cnn3-c3ccccc3)C[C@@]21C1CC1 [Example 27, 2-{2-[(4aR,5R)-4a-Cyclopropyl-5-hydroxy-1-phenyl-1,4,4a,5,6,7-hexahydrocyclopenta[f]indazol-5-yl]ethyl}benzonitrile] | 1 nM
14 | CC[C@]12Cc3cnn(-c4ccc(F)cc4)c3C=C1CC[C@@]2(O)CCc1cncc(F)c1 [Example 21, (4aS,5R)-4a-Ethyl-1-(4-fluorophenyl)-5-[2-(5-fluoropyridin-3-yl)ethyl]-1,4,4a,5,6,7-hexahydrocyclopenta[f]indazol-5-ol] | 1.04 nM
15 | CC(C)(CO)NC(=O)c1cc(F)cnc1CC[C@]1(O)CCC2=Cc3c(cnn3-c3ccc(F)cc3)C[C@@]21C1CC1 [Example 48, 2-{2-[(4aR,5R)-4a-Cyclopropyl-1-(4-fluorophenyl)-5-hydroxy-1,4,4a,5,6,7-hexahydrocyclopenta[f]indazol-5-yl]ethyl}-5-fluoro-N-(1-hydroxy-2-methylpropan-2-yl)pyridine-3-carboxamide] | 3.55 nM
16 | N#Cc1ccnc(CC[C@]2(O)CCC3=Cc4c(cnn4-c4ccc(F)cc4)C[C@@]32C2CC2)c1 [Example 35, 2-{2-[(4aR,5R)-4a-Cyclopropyl-1-(4-fluorophenyl)-5-hydroxy-1,4,4a,5,6,7-hexahydrocyclopenta[f]indazol-5-yl]ethyl}pyridine-4-carbonitrile] | 1.99 nM
17 | CC[C@]12Cc3cnn(-c4ccc(F)cc4)c3C=C1CC[C@@]2(O)CC(O)c1cc(C#N)ccn1 (stereo partly drawn) [Example 72, 2-{2-[(4aS,5R)-4a-Ethyl-1-(4-fluorophenyl)-5-hydroxy-1,4,4a,5,6,7-hexahydrocyclopenta[f]indazol-5-yl]-1-hydroxyethyl}pyridine-4-carbonitrile] | 6.25 nM
18 | CS(=O)(=O)c1ccccc1CC[C@]1(O)CCC2=Cc3c(cnn3-c3ccc(F)cc3)C[C@@]21C1CC1 [Example 58, (4aR,5R)-4a-Cyclopropyl-1-(4-fluorophenyl)-5-{2-[2-(methylsulfonyl)phenyl]ethyl}-1,4,4a,5,6,7-hexahydrocyclopenta[f]indazol-5-ol] | 0.88 nM
